This passage reports IC50 results from patent US20240148821A1, “PHARMACEUTICAL USE OF CYCLIC PEPTIDE COMPOUND” (CHUGAI SEIYAKU KABUSHIKI KAISHA, priority 2021, published 2024).

Numbered stars: 1 amine (or outer) side, 2 acyl side, 3 side chain; on linkers, the order of the positions; unused ones are H or OH. Bridge positions count the residues as written; N and C are the ends. Square brackets hold non-standard residues; d marks the D form. Peptide text beside a SMILES is read from it. * marks the point of attachment. hPhe(3,5-F2-4-CF3) = N[C@@H](CCc1cc(F)c(C(F)(F)F)c(F)c1)C(=O)O; hPhe(3-Cl-4-CF3) = N[C@@H](CCc1ccc(C(F)(F)F)c(Cl)c1)C(=O)O; hPhe(3-F,4-CF3) = N[C@@H](CCc1ccc(C(F)(F)F)c(F)c1)C(=O)O; X49 = CN([C@@H](Cc1cccc(OC(F)(F)F)c1)C(=O)[*:2])[*:1]; NMeAbu(4,4,4-F3) = CN[C@@H](CC(F)(F)F)C(=O)O; NMePhe(4-Cl) = CN[C@@H](Cc1ccc(Cl)cc1)C(=O)O; NMePhe(2-CN) = CN[C@@H](Cc1ccccc1C#N)C(=O)O; NMePhe(4-Me) = CN[C@@H](Cc1ccc(C)cc1)C(=O)O; NMePhe(3-F) = CN[C@@H](Cc1cccc(F)c1)C(=O)O; NMedβ3hAla = C[C@H](CC(=O)[*:2])N(C)[*:1]; NMeGly(cPent) = CN[C@H](C(=O)O)C1CCCC1; Phe(3-I) = N[C@@H](Cc1cccc(I)c1)C(=O)O; Pro(4,4-F2) = O=C(O)[C@@H]1CC(F)(F)CN1; NMeGly(cBu) = CN[C@H](C(=O)O)C1CCC1; NMeCha = CN[C@@H](CC1CCCCC1)C(=O)O; NMeChg = CN[C@H](C(=O)O)C1CCCCC1; NMeF = CN[C@@H](Cc1ccccc1)C(=O)O; NMeD = CN[C@@H](CC(=O)O)C(=O)O; CH2CONHtBu = CC(C)(C)NC(=O)C*; NMeL = CN[C@@H](CC(C)C)C(=O)O; NMeV = CN[C@H](C(=O)O)C(C)C; d(β3hA) = C[C@@H](N)CC(=O)O; NMeS = CN[C@@H](CO)C(=O)O; NMeA = CN[C@@H](C)C(=O)O; NMeAib = CNC(C)(C)C(=O)O; Nle = CCCC[C@H](N)C(=O)O; Piperidide = C1CCN(*)CC1; Pyrrolidide = C1CCN(*)C1; Ac5c = NC1(C(=O)O)CCCC1; Aze = O=C(O)[C@@H]1CCN1; Aib = CC(C)(N)C(=O)O; Isopentyl = CC(C)CC*; Sar = CNCC(=O)O

This assay concerns Human pancreatic cancer cell line AsPC-1 (G12D mutation Kras). The assay can be described thus: AsPC-1 cell growth inhibition (AsPC-1 CGI). The assay is classed as cell-based. The note with it: read-out: AsPC-1 cell growth inhibition, 50% growth inhibitory concentration (IC50 value); 96 hours, CellTiter-Glo, values classified in ranges.
Description: Test compounds were serially dilated with dimethyl sulfoxide, and 200 nL was then dispensed to a U-bottom 96-well plate using Labcyte Echo. […] The cell suspension was dispensed to a. plate containing a test compound at 100 μL per well and incubated at 37° C. in a 5% carbon dioxide gas incubator. 96 hours later, 80 μL of CellTiter-Glo (Promega) was added to each well and fluorescence was measured.
For `CC[C@H](C)[C@@H]1NC(=O)[C@H](CC(C)C)N(C)C(=O)C[C@@H](C)N(C)C(=O)[C@H](CC(C)C)NC(=O)C(C)(C)N(C)C(=O)[C@H](CC(C)C)NC(=O)[C@H](CCc2ccc(C(F)(F)F)c(F)c2)NC(=O)CN(C)C(=O)[C@H](CC2CCCCC2)N(C)C(=O)CN(C)C(=O)[C@@H]2CCN2C1=O` [Compound 905] (cyclo([Aze][Sar][NMeCha][Sar][hPhe(3-F,4-CF3)]L[NMeAib]L[NMedβ3hAla][NMeL]I)), the IC50 was above 500 nM.
Then `CC[C@H](C)[C@@H]1NC(=O)[C@H](CC(C)C)N(C)C(=O)C[C@@H](C)NC(=O)[C@H](C2CCC2)N(C)C(=O)C2(CCCC2)NC(=O)[C@@H]2CCCN2C(=O)[C@H](CCc2ccc(C(F)(F)F)c(Cl)c2)NC(=O)CN(C)C(=O)[C@H](CC2CCCCC2)N(C)C(=O)CN(C)C(=O)CN(C)C1=O` [Compound 183] (cyclo([Ac5c][NMeGly(cBu)][d(β3hA)][NMeL]I[Sar][Sar][NMeCha][Sar][hPhe(3-Cl-4-CF3)]P)), with above 500 nM; and `CC[C@H](C)[C@@H]1NC(=O)[C@H](CC(C)C)N(C)C(=O)C[C@@H](C)N(C)C(=O)[C@H](CC(C)C)NC(=O)C(C)(C)N(C)C(=O)[C@H](CC(C)C)NC(=O)[C@H](CCc2ccc(C(F)(F)F)c(Cl)c2)NC(=O)CN(C)C(=O)[C@H](Cc2ccc(C)cc2)N(C)C(=O)[C@@H]2CCN2C(=O)CN(C)C1=O` [Compound 1386] (cyclo([Aze][NMePhe(4-Me)][Sar][hPhe(3-Cl-4-CF3)]L[NMeAib]L[NMedβ3hAla][NMeL]I[Sar])), with above 500 nM; and `CC[C@H](C)[C@@H]1NC(=O)[C@H](CC(C)C)N(C)C(=O)C[C@@H](C(=O)N2CCCCC2)N(C)C(=O)[C@H](CC(C)C)N(C)C(=O)C(C)(C)NC(=O)[C@H](COCC(=O)NC(C)(C)C)N(C)C(=O)[C@H](CCc2ccc(C(F)(F)F)c(Cl)c2)NC(=O)CN(C)C(=O)[C@H](COCCC(C)C)N(C)C(=O)CN(C)C(=O)CN(C)C1=O` [Compound 1480] ([NMeL]I[Sar][Sar][NMeS](Isopentyl)[Sar][hPhe(3-Cl-4-CF3)][NMeS](CH2CONHtBu)[Aib][NMeL][NMeD]-Piperidide; lactam N-11), with above 500 nM.
Consider `CC[C@H](C)[C@@H]1NC(=O)[C@H](CC(C)C)N(C)C(=O)C[C@@H](C(=O)N2CCCCC2)N(C)C(=O)[C@H](C(C)C)N(C)C(=O)C2(CCCC2)NC(=O)[C@@H]2CCCN2C(=O)[C@H](CCc2ccc(C(F)(F)F)c(Cl)c2)NC(=O)CN(C)C(=O)[C@H](Cc2ccccc2C#N)N(C)C(=O)CN(C)C(=O)CN(C)C1=O` [Compound 935] ([NMeL]I[Sar][Sar][NMePhe(2-CN)][Sar][hPhe(3-Cl-4-CF3)]P[Ac5c][NMeV][NMeD]-Piperidide; lactam N-11), for which the IC50 was above 500 nM.
Consider `CC[C@H](C)[C@@H]1NC(=O)[C@H](CC(C)C)N(C)C(=O)C[C@@H](C(=O)N(C)C)N(C)C(=O)[C@H](C2CCCC2)N(C)C(=O)C2(CCCC2)NC(=O)[C@H](Cc2cccc(F)c2)N(C)C(=O)[C@H](CCc2ccc(C(F)(F)F)c(Cl)c2)NC(=O)CN(C)C(=O)[C@H](CC2CCCCC2)N(C)C(=O)[C@@H]2CCN2C(=O)[C@H](C)N(C)C1=O` [Compound 95] ([NMeL]I[NMeA][Aze][NMeCha][Sar][hPhe(3-Cl-4-CF3)][NMePhe(3-F)][Ac5c][NMeGly(cPent)][NMeD]-NMe2; lactam N-11), for which the IC50 was above 500 nM.
In the case of `CC[C@H](C)[C@@H]1NC(=O)[C@H](CC(F)(F)F)N(C)C(=O)C[C@@H](C(=O)N2CCCC2)N(C)C(=O)[C@H](C2CCCCC2)N(C)C(=O)C2(CCCC2)NC(=O)[C@@H]2CC(F)(F)CN2C(=O)[C@H](CCc2cc(F)c(C(F)(F)F)c(F)c2)NC(=O)CN(C)C(=O)[C@H](Cc2ccc(C)cc2)N(C)C(=O)CN(C)C(=O)CN(C)C1=O` [Compound 1317] ([NMeAbu(4,4,4-F3)]I[Sar][Sar][NMePhe(4-Me)][Sar][hPhe(3,5-F2-4-CF3)][Pro(4,4-F2)][Ac5c][NMeChg][NMeD]-Pyrrolidide; lactam N-11), the IC50 is at most 20 nM.
Then `CC[C@H](C)[C@@H]1NC(=O)[C@H](CC(C)C)N(C)C(=O)C[C@@H](C)NC(=O)[C@H](C(C)C)N(C)C(=O)C2(CCCC2)NC(=O)[C@@H]2CCCN2C(=O)[C@H](CCc2ccc(C(F)(F)F)c(Cl)c2)NC(=O)CN(C)C(=O)[C@H](Cc2ccccc2)N(C)C(=O)CN(C)C(=O)CN(C)C1=O` [Compound 1606] (cyclo([Ac5c][NMeV][d(β3hA)][NMeL]I[Sar][Sar][NMeF][Sar][hPhe(3-Cl-4-CF3)]P)), with above 500 nM.
In the case of `CCCC[C@@H]1NC(=O)[C@H](Cc2cccc(I)c2)NC(=O)CN(C)C(=O)[C@H](Cc2ccc(Cl)cc2)N(C)C(=O)CN(C)C(=O)CN(C)C(=O)[C@H]([C@@H](C)CC)NC(=O)[C@H](CC(C)C)N(C)C(=O)C[C@@H](C(=O)N2CCCCC2)N(C)C(=O)[C@H](CC(C)C)NC(=O)[C@H](Cc2cccc(OC(F)(F)F)c2)N(C)C1=O` [Compound 143] ([NMeL]I[Sar][Sar][NMePhe(4-Cl)][Sar][Phe(3-I)][Nle][X49]L[NMeD]-Piperidide; lactam N-11), the IC50 was above 500 nM.
